Assay results from patent US20260078119A1, “DEGRADER COMPOUNDS AND USES THEREOF” (Bristol-Myers Squibb Company, priority 2024, published 2026).

Tests used:
FAK = biological target: T1, FAK (Homo sapiens, UniProt Q05397); assay: FAK-HiBiT Degradation Assay; assay type: cell-based; conditions: for DC50: JHH-4-FAK-HiBiT clone d01 cells, two hours incubation, 10-point dose response, 3-fold dilution starting at 1 μM, Nano-Glo HiBiT luminescence, read-out: FAK HiBiT EC50; for FAK HiBiT Ymin: lower limit of the four parameter fit (value A), Ymax derived using DMSO control, JHH-4-FAK-HiBiT cells, two hours
T1 construct: homozygous knock-in of a HiBiT tag (Promega Corporation, Madison, WI) to the C-terminus of the FAK gene in its natural genomic locus; endogenous in cells; host or cells: JHH-4-FAK-HiBiT clone d01 (CRISPR-Cas9 knock-in at the endogenous locus)
Source text: To generate JHH-4-FAK-HiBiT cells for the FAK degradation assay, JHH-4 cells (Japanese Collection of Research Biosources Cell Bank, Japan) were transfected with ribonucleoprotein reagents to introduce, by CRISPR-Cas9 editing, the homozygous knock-in of a HiBiT tag (Promega Corporation, Madison, WI) to the C-terminus of the FAK gene in its natural genomic locus. Clonal cell populations were established by expanding single cells after CRISPR-Cas9 editing, with a clonal cell line named JHH-4-FAK-HiBiT clone d01 confirmed by next generation DNA sequencing to contain the expected HiBiT edited FAK gene and was selected for FAK degradation screening. Cells were selected and maintained in complete DMEM media (DMEM, 10% Heat Inactivated FBS, and Non-Essential Amino Acids at 37° C. and 5% CO2). Cells were passaged every 3-4 days by reseeding 0.5×10^6 cells in a T75 flask.
Cells were dispensed into 384-well white plates (Corning #3570, NY) that were pre-spotted with compounds using an acoustic dispenser (Echo acoustic transfer system, Beckman Coulter Life Sciences, Carlsbad, CA) as a 10-point dose response curve with a 3-fold dilution starting at 1 μM and including a DMSO control. Twenty-five microliters of media containing 2000 JHH-4-FAK-HiBiT Clone d01 cells was dispensed per well. Assay plates were incubated at 37° C. with 5% CO2 for two hours. After incubation, 25 μL of Nano-Glo HiBiT Lytic Reagent Working Solution (Promega Corporation, Madison, WI) was added to each well and incubated at room temperature for 10 minutes protected from light. After 10 minutes, luminescence was read on a PHERAstar luminometer (BMG Labtech, Cary, NC).
To determine the half-maximal effective concentration (EC50) values for FAK-HiBIT degradation, a four parameter logistic model was used: (Sigmoidal Dose-Response Model)(FIT=(A+((B−A)/1+((C/x)^D)))) where C is the inflection point (EC50), D is the Hill slope, and A and B are the low and high limits of the fit respectively). The lower limit of the fit (value A) is referred to as Ymin. The maximum limit constraint, Ymax, was derived using DMSO control. The curves were processed and evaluated using Dotmatics Atlas (Insightful Science, LLC, Boston, MA).

CAL-51 cells = assay: CAL-51 Cell Proliferation Assay; assay type: cell-based; conditions: for EC50: Homo sapiens, 120 hours incubation, 10-point dose response, 4-fold dilutions starting at 10 μM, Cell-Titer-Glo, read-out: CAL-51 Prolif EC50; for CAL-51 Prolif Ymin: minimal percent of DMSO control observed in the concentrations tested (Ymin-obs), 120 hours
Source text: CAL-51 cells were obtained from Bristol Myers Squibb internal cell banks (originally sourced from DSMZ-German Collection of Microorganisms and Cell Cultures GmbH, Germany) and cultured in RPMI complete media (RPMI-1640, 10% Fetal Bovine serum, 1× Antibiotic-Antimycotic, and 1× Non-Essential Amino Acids). Compounds were dispensed into 384-well plates using an acoustic dispenser (Beckman Coulter Life Sciences, Carlsbad, CA) in duplicate with 14 compounds on each plate. For each compound, a 10-point dose response was printed at 4-fold dilutions starting at 10 μM. The DMSO concentration was kept constant for a final assay concentration of 0.1% per well assuming 50 uL final media volume. Compound plates were sealed and frozen at −20° C. until use.
For each assay batch, compound plates were thawed and allowed to reach room temperature, and cells were seeded at 350 cells per well in 50 μl complete RPMI media. After 120 hours of incubation at 37° C. and 5% CO2, cells were lysed by addition of 25 μL of Cell-Titer-Glo Reagent (Promega Corporation, Madison, WI), as per manufacturer's instructions, protected from light, shaken for 20 minutes, and total luminescence read by a CLARIOstar Plus plate reader (BMG LabTech, Cary, NC). Total luminescence signal is linearly correlated with cell number remaining in the well.
Luminescence data was processed per plate by subtracting reagent-only “blank” well luminescence from all measured values and calculating a percent of DMSO control value for each treatment well. Then, to determine the half-maximal effective concentration (EC50) values for cell growth inhibition, a four parameter logistic model was fit to the data for each DMSO-normalized compound: Sigmoidal Dose-Response Model: (FIT=(A+((B−A)/1+((C/x)^D)))) where C is the inflection point (EC50), D is the Hill slope, and A and B are the low and high limits of the fit respectively. The lower limit of the fit (value A) is referred to as Ymin-calculated. The minimal percent of DMSO control that is observed in the concentrations tested for each compound is labeled as “Ymin-obs”, and was recorded and reported in the tables. Sigmoidal fit curves were processed and evaluated using Dotmatics Atlas (Insightful Science, LLC, Boston, MA).

T1 sequence (Q05397 whole entry): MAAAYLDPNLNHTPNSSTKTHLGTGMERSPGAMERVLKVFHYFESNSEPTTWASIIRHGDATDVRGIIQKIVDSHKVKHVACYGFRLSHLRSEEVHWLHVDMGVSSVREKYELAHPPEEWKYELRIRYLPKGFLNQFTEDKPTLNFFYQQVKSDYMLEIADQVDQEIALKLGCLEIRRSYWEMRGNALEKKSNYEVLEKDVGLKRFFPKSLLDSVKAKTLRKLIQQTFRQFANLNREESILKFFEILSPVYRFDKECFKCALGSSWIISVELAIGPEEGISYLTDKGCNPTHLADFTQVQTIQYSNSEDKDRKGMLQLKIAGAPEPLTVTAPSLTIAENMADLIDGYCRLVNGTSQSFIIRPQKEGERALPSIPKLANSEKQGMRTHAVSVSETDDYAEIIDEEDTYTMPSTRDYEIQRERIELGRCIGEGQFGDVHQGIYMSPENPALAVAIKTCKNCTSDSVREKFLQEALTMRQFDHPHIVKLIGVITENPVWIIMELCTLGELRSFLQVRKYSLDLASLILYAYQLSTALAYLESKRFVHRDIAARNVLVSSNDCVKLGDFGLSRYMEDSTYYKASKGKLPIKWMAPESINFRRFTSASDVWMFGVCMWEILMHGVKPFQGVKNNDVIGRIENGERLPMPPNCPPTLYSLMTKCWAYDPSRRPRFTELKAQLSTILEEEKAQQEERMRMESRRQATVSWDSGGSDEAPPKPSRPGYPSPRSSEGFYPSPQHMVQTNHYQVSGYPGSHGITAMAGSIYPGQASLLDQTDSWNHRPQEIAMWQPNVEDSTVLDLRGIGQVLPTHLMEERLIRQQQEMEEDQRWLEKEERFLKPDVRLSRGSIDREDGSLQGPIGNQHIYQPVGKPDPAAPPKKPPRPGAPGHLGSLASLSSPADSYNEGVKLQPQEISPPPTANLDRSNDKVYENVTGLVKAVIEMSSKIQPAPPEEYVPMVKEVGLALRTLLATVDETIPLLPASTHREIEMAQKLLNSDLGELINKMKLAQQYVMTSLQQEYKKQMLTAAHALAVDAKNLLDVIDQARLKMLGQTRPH

Structure (SMILES) | DC50 (FAK) [nM] | FAK HiBiT Ymin (FAK) | EC50 (CAL-51 cells) [nM] | CAL-51 Prolif Ymin (CAL-51 cells)
CC(C)Nc1nc2c(cnn2Cc2ccc3c(c2)CN([C@H]2CCC(=O)NC2=O)C3=O)c(-c2ncc(F)cc2Cl)c1F (single isomer, unassigned) [Example 9] | 0.55 | 9.43 | 0.46 | 22.89
O=C1CC[C@H](N2Cc3c(ccc(Cn4ncc5c(-c6ncc(F)cc6Cl)cc(N6CC(F)C6)nc54)c3F)C2=O)C(=O)N1 (single isomer, unassigned) [Example 61] | 3.6 | 7.65 | 7.1 | 35.56
O=C1CC[C@@H](N2Cc3cc(Cn4ncc5c(-c6ncc(C(F)(F)F)cc6Cl)c(F)c(N6CC(F)C6)nc54)ccc3C2=O)C(=O)N1 (single isomer, unassigned) [Example 78] | 8.4 | 5.59 | 1.76 | 24.33
O=C1CC[C@@H](N2Cc3cc(Cn4ncc5c(-c6ncc(C(F)(F)F)cc6Cl)cc(N6CC(F)C6)nc54)ccc3C2=O)C(=O)N1 (single isomer, unassigned) [Example 87] | 13 | 5.32 | 2.17 | 38.15
O=C1CC[C@H](N2Cc3cc(Cn4ncc5c(-c6ncc(C7COC7)cc6Cl)cc(N6CC(F)C6)nc54)ccc3C2=O)C(=O)N1 (single isomer, unassigned) [Example 108] | 40.5 | 13.46 | 18.2 | 28.68
O=C1CC[C@@H](N2Cc3c(ccc(Cn4ncc5c(-c6ncc(F)cc6Cl)cc(N6CC(F)C6)nc54)c3F)C2=O)C(=O)N1 (single isomer, unassigned) [Example 109] | 42.1 | 11.09 | 10.2 | 35.33
O=C1CC[C@@H](N2Cc3cc(Cn4ncc5c(-c6ncc(C7COC7)cc6Cl)cc(N6CC(F)C6)nc54)ccc3C2=O)C(=O)N1 (single isomer, unassigned) [Example 127] | 213 | 42.87 | 8.94 | 37.97
O=C1CC[C@H](N2Cc3cc(Cn4ncc5c(-c6ncc(C(F)(F)F)cc6Cl)cc(N6CCC(O)C6)nc54)ccc3C2=O)C(=O)N1 (stereo in doubt) [Example 106, (3S)-3-[5-({4-[3-chloro-5-(trifluoromethyl)pyridin-2-yl]-6-[(3R)-3-hydroxypyrrolidin-1-yl]-1H-pyrazolo[3,4-b]pyridin-1-yl}methyl)-1-oxo-2,3-dihydro-1H-isoindol-2-yl]piperidine-2,6-dione] | 37.9 | 17.24 | 54.6 | 53.56
O=C1CC[C@H](N2Cc3cc(Cn4ncc5c(-c6ncc(C(F)(F)F)cc6Cl)c(F)c(N6CC(F)C6)nc54)ccc3C2=O)C(=O)N1 [Example 1, (3S)-3-[5-({4-[3-chloro-5-(trifluoromethyl)pyridin-2-yl]-5-fluoro-6-(3-fluoroazetidin-1-yl)-1H-pyrazolo[3,4-b]pyridin-1-yl}methyl)-1-oxo-2,3-dihydro-1H-isoindol-2-yl]piperidine-2,6-dione] | 0.14 | 7.57 | 0.17 | 27.59
O=C1CC[C@H](N2Cc3cc(Cn4ncc5c(-c6ncc(C(F)(F)F)cc6Cl)c(Cl)c(N6CC(F)C6)nc54)ccc3C2=O)C(=O)N1 [Example 2, (3S)-3-[5-({5-chloro-4-[3-chloro-5-(trifluoromethyl)pyridin-2-yl]-6-(3-fluoroazetidin-1-yl)-1H-pyrazolo[3,4-b]pyridin-1-yl}methyl)-1-oxo-2,3-dihydro-1H-isoindol-2-yl]piperidine-2,6-dione] | 0.24 | 7.25 | 0.43 | 14.10
O=C1CCC(N2Cc3cc(Cn4ncc5c(-c6ncc(C(F)(F)F)cc6Cl)c(F)c(N6CC(F)C6)nc54)ccc3C2=O)C(=O)N1 (stereo not drawn) [Example 3, 3-[5-({4-[3-chloro-5-(trifluoromethyl)pyridin-2-yl]-5-fluoro-6-(3-fluoroazetidin-1-yl)-1H-pyrazolo[3,4-b]pyridin-1-yl}methyl)-1-oxo-2,3-dihydro-1H-isoindol-2-yl]piperidine-2,6-dione] | 0.29 | 8.97 | 1.42 | 23.98
O=C1CCC(N2Cc3cc(Cn4ncc5c(-c6ccc(C7(O)CCOCC7)cn6)cc(N6CC(F)C6)nc54)ccc3C2=O)C(=O)N1 (stereo not drawn) [Example 122, 3-(5-{[6-(3-fluoroazetidin-1-yl)-4-[5-(4-hydroxyoxan-4-yl)pyridin-2-yl]-1H-pyrazolo[3,4-b]pyridin-1-yl]methyl}-1-oxo-2,3-dihydro-1H-isoindol-2-yl)piperidine-2,6-dione] | 98.1 | 74.73 | – | –
CC(C)(O)c1ccc(Cl)c(-c2cc(N3CCC3)nc3c2cnn3Cc2ccc3c(c2)CN(C2CCC(=O)NC2=O)C3=O)c1 (stereo not drawn) [Example 124, 3-(5-{[6-(azetidin-1-yl)-4-[2-chloro-5-(2-hydroxypropan-2-yl)phenyl]-1H-pyrazolo[3,4-b]pyridin-1-yl]methyl}-1-oxo-2,3-dihydro-1H-isoindol-2-yl)piperidine-2,6-dione] | 124 | 43.76 | – | –
CC(C)Nc1cc(-c2ncc(C#N)cc2F)c2cnn(Cc3ccc4c(c3)CN(C3CCC(=O)NC3=O)C4=O)c2n1 (stereo not drawn) [Example 137, 6-(1-{[2-(2,6-dioxopiperidin-3-yl)-1-oxo-2,3-dihydro-1H-isoindol-5-yl]methyl}-6-[(propan-2-yl)amino]-1H-pyrazolo[3,4-b]pyridin-4-yl)-5-fluoropyridine-3-carbonitrile] | ≥ 1000 | 81.91 | – | –
Cc1ncccc1-c1cc(N2CC(F)C2)nc2c1cnn2Cc1ccc2c(c1)CN(C1CCC(=O)NC1=O)C2=O (stereo not drawn) [Example 139, 3-(5-{[6-(3-fluoroazetidin-1-yl)-4-(2-methylpyridin-3-yl)-1H-pyrazolo[3,4-b]pyridin-1-yl]methyl}-1-oxo-2,3-dihydro-1H-isoindol-2-yl)piperidine-2,6-dione] | ≥ 1000 | 93.99 | – | –
O=C1CC[C@H](N2Cc3cc(Cn4ncc5c(-c6ncc(Cl)cc6F)cc(N6CC[C@H](O)C6)nc54)ccc3C2=O)C(=O)N1 [Example 141, (3S)-3-(5-{[4-(5-chloro-3-fluoropyridin-2-yl)-6-[(3S)-3-hydroxypyrrolidin-1-yl]-1H-pyrazolo[3,4-b]pyridin-1-yl]methyl}-1-oxo-2,3-dihydro-1H-isoindol-2-yl)piperidine-2,6-dione] | 9 | 53 | – | –
